Test system: P. mathanolica cells (strain CBS6515, UV-mutagenized)
Assay: Nystatin enrichment for auxotrophic mutants: titering of colony forming units, nystatin-treated versus control cells
Type: cell-based, Pichia methanolica
Settings: 1 mg nystatin added to remainder of 500 ml culture in minimal broth with 5 g/L ammonium sulfate, incubated one additional hour; versus control cells without nystatin
Protocol: The cells are then transferred to a culture medium deficient in assimilable nitrogen so that cellular nitrogen stores are depleted. By "deficient in assimilable nitrogen" it is meant that the medium lacks an amount of nitrogen sufficient to support growth of the cells. Depletion of cellular nitrogen stores will generally require about 12 to 24 hours of incubation, with 16 hours being sufficient under common conditions. Following depletion of nitrogen stores, the cells are cultured in a defined culture medium comprising an inorganic nitrogen source and an amount of an antifungal antibiotic sufficient to kill growing P. mathanolica cells. The antibiotic nystatin (mycostatin) is particularly preferred. Preferred inorganic nitrogen sources are those comprising ammonium ions, such as ammonium sulfate. In general, the medium will contain 10-200 mM ammonium, preferably about 60 mM ammonium. Nystatin is included at a concentration of 0.1 to 100 mg/l, preferably 0.5 to 20 mg/L, more preferably about 2 mg/L ([…]). […] Those skilled in the art will recognize that the actual antibiotic concentration and exposure time required to kill prototrophic cells can be readily determined empirically,and certain adjustments may be necessary to compensate for variations in specific activity between individual batches of antibiotic. […]

`C[C@@H]1[C@H](O)[C@@H](C)/C=C/C=C/CC/C=C/C=C/C=C/C=C/C(O[C@H]2O[C@H](C)[C@@H](O)[C@H](N)[C@@H]2O)CC2O[C@](O)(CC(O)C(O)CCC(O)CC(O)CC(O)CC(=O)O[C@H]1C)CC(O)C2C(=O)O` (stereo partly shown) [nystatin] was tested, and the “decrease in the number of viable cells (colony forming units), factor” value was 10^4.

— patent publication US6001597A, “Compositions and methods for producing heterologous polypeptides in Pichia methanolica” (ZymoGenetics, Inc., priority 1998, dated 1999)
